Experimental data from patent publication US20010005752A1, “Fluorescent dyes (AIDA) for solid phase and solution phase screening” (priority 1998, published 2001).

Tests used:
Format in all cases: physicochemical
[1] = Steady-state fluorescence spectroscopy (excitation and emission spectra); details: for Emission range in parenthesis / Emission λmax / Excitation range in parenthesis / Excitation λmax: acetonitrile/2% DMSO
Experimental: Steady-state fluorescence measurements are performed on a SLM 8000C spectro-fluorometer equipped with JD490 photomultipliers and a 450 W Xenon Arclamp (SLM Instruments, Urbana, Ill.).
[…] Spectral bandwidths are set to 1 and 4 nm for excitation and emission, respectively. Spectra are recorded in single photon counting mode. Changes in lamp intensity are corrected with a quantum counter in the reference channel, measured in slow mode. Gain is set to x 100 with a high voltage (HV) of 640 V. Integration time is 2 seconds. For excitation spectra measurements, the emission wavelength is set to 397 nm and the sample is excited from 200 to 400 nm. For recording emission spectra, the sample is excited at 342 nm and the emission is recorded from 350 to 540 nm. The data are averaged over two scans.

[2] = UV-Vis absorption spectroscopy; details: for Absorption λmax / ε (at absorption λmax): acetonitrile/2% DMSO
Experimental: UV-Vis absorption spectroscopy is performed on a Cary 1E spectrophotometer. […]
[…] […] From each stock solution, 5 dilutions with concentrations of 2.5 μm, 10 μM, 17 μM, 25 μm and 35 μM are made. UV-spectra of each dilution are recorded from 200 to 400 nm, using a quarz cuvette with a pathlength of 1 cm. […] A linear fit is carried out for each series of measurements. The extinction coefficient ε at 337 nm is given by the slope of the linear regression.

[3] = Calculation of R0 (Förster distance) between 4e and NATA; details: 4e acceptor, NATA donor, THF
Experimental: The emission spectrum of NATA is measured at a concentration of 15 μM in THF, using a 750 μl quartz cuvette with an optical pathlength of 10 mm. Measuring mode is single photon counting. Changes in lamp intensity are corrected using a quantum counter in the reference channel. The gain is set at x 100, the high voltage applied was 640 V and the integration time is 2 seconds. The fluorescence emission is corrected for photometric accuracy of the system by multiplication with correction factors obtained by standard lamp calibration. Slit widths are set at 1 nm and 4 nm for excitation and emission, respectively. […] R0 is calculated using the formula R0=(9.97×10^3)(Jκ^2η^-4 θNATA)^1/6 Å where κ^2 is an orientation factor of the relative orientation in space of the transition dipoles of the donor and acceptor chromophores. […] J is the spectral overlap integral which can be approximated from […](λ)λ^4Δλ (2) where FNATA is the corrected fluorescence emission of the donor, the sum normalized to unity, ε4e is the extinction coefficient of the acceptor at wavelength λ, and DS is the incremental detection range.

[4] = Quantum yield determination with chininsulfate as standard; details: 25 μM in THF
Experimental: The quantum yield of 4e is determined using chininsulfate as a standard [Melhuish, 1961].
The point of intersection between the UV spectra of 4e and chininsulfate (CS) is determined by measurements of a solution of the two substances on a Cary 1E spectrophotometer. Concentrations were 25 μM in THF for 4e and 50 mM in 1N H2SO4 for CS. Spectra are recorded from 260 nm to 380 nm using a quartz cuvette with an optical pathlength of 10 mm, and blank corrected by subtracting the solvent absorption. The point of intersection of the two resulting UV spectra is determined to be at 348.3 nm, corresponding to 352.8 nm on the SLM-8000 C fluorometer due to monochromator shifts. The fluorescence emission spectra of 4e and CS are recorded using the same solutions as for the UV-measurements in single photon counting mode. Lamp intensity changes are corrected with a quantum counter in the reference channel, measured in slow mode. Gain is set at x 100, high voltage applied was 830 V. Integration time was 0.5 seconds.
Spectral bandwidths are set at 1 nm for excitation, 2 nm and 4 nm for emission.
For the recording of the emission spectra, excitation is set to 352.8 and emission is monitored from 360 to 550 nm for IAE and 360 to 650 nm for CS.

[5] = Picosecond time-resolved fluorescence spectroscopy (fluorescence lifetime); details: 25 μM in THF, emission 400 nm
Experimental: Picosecond time-resolved fluorescence measurements are recorded according to the single photon counting technique [Lakowicz, 1983 p 52-93, 112-153, 156-185]. An Ar^+-pumped Ti:Sapphire laser (model MIRA 900, Coherent, Santa Clara, USA) provided under mode-locked conditions ultrashort pulses (FWHM=150 fs) with a frequency of 75 MHz. To reduce the repetition rate to 4.7 MHz, a pulse picker (model 9200, Coherent, Santa Clara, USA) is inserted into the beam. […] Fluorescence photons are collected in a Spex 1681 single grating monochromator (Spex, Edison, USA) and detected with the Hamamatsu R3809U microchannel plate (Hamamatsu, Shimokanzo, Japan). […] The voltage values which correspond to the time passed between excitation and emission of a fluorescence photon in a single experiment are stored in the Spectrum Master 921 (Ortec, Oak Ridge, USA) which is connected to the multichannel emulation program Maestro (Ortec, Oak Ridge, USA). […]
where A represents the background noise of the experiment, bi represent the pre-exponential terms of the according fluorescence lifetimes τi, and δt is an optional temporal shift term to compensate for shifts of the instrument response. […]
The time resolved decay of 4e is determined at a concentration of 25 μM in THF. Excitation is from 350 nm 380 nm, fluorescence emission is detected at 400 nm with slit widths set to 0.5 nm. […]

| SMILES | fluorescence emission (relative to 1,3-diaryl-1H-indazoles) [1] | Emission range in parenthesis [1] | Emission λmax [1] [nm] | Excitation range in parenthesis [1] | Excitation λmax [1] [nm] | Absorption λmax [2] [nm] | ε (at absorption λmax) [2] [M⁻¹ cm⁻¹] | R0 (Förster distance) of the dye pair with NATA [3] | photophysical and photochemical stability [1] | maximal emission intensity (wavelength) ([1]; 1 μM in THF, excitation at 342 nm) [nm] | Stoke shift ([1]; THF) | quantum yield [4] | fluorescence lifetime (mono-exponential decay) [5] [nsec] | relative amplitude of lifetime component [5] [%] | absorption maximum ([2]; THF) [nm] | absorption coefficient ε at 337 nm ([2]; THF, 337 nm) [M⁻¹ cm⁻¹] |
| --- | --- | --- | --- | --- | --- | --- | --- | --- | --- | --- | --- | --- | --- | --- | --- | --- |
| O=C(O)c1ccc(-n2nc(-c3ccccc3)c3ccc4ccccc4c32)cc1 [4-(3-phenyl-benzo[g]indazol-1-yl)-benzoic acid, reference compound] | dramatically reduced |  |  |  |  |  |  |  |  |  |  |  |  |  |  |  |
| O=C(O)c1ccc(-n2nc(-c3ccc([N+](=O)[O-])cc3)c3ccccc32)cc1 [4f] |  | 470-670 nm | 554 | 320-400 nm | 368 | 354 | 25482 |  |  |  |  |  |  |  |  |  |
| COc1ccc(-c2nn(-c3ccc(C(=O)O)cc3)c3cc(OC)ccc23)cc1 [4h] |  | 370-600 nm | 439 | 300-350 nm | 330 | 327 | 27650 |  |  |  |  |  |  |  |  |  |
| NC(=O)c1ccc(-c2nn(-c3ccc(C(=O)O)cc3)c3ccccc23)cc1 [4c, 4-[3-(4-carbamoyl-phenyl)-1H-indazol-1-yl]-benzoic acid] |  | 360-500 nm | 393 | 300-360 nm | 334 | 332 | 30665 |  |  |  |  |  |  |  |  |  |
| O=C(O)c1ccc(-c2nn(-c3ccc(C(=O)O)cc3)c3ccccc23)cc1 [4b, 1,3-Bis-(4-carboxyphenyl)-1H-indazole] |  | 360-500 nm | 396 | 300-360 nm | 335 | 334 | 29152 |  |  |  |  |  |  |  |  |  |
| O=C(O)c1ccc(-n2nc(-c3ccc(Cl)cc3)c3ccc(Cl)cc32)cc1 [4g] |  | 350-450 nm | 364 | 310-350 nm | 328 | 328 | 29157 |  |  |  |  |  |  |  |  |  |
| O=C(O)c1ccc(-c2nn(-c3ccc([N+](=O)[O-])cc3)c3ccccc23)cc1 [4i] |  | 470-670 nm | 551 | 320-420 nm | 374 | 361 | 31261 |  |  |  |  |  |  |  |  |  |
| COC(=O)c1ccc(-c2nn(-c3ccc(C(=O)O)cc3)c3ccccc23)cc1 [4d] |  | 360-500 nm | 396 | 300-360 nm | 336 | 334 | 33114 |  |  |  |  |  |  |  |  |  |
| Cc1ccc2c(-c3ccc([N+](=O)[O-])cc3)nn(-c3ccc(C(=O)O)cc3)c2c1 [4j] |  | 490-700 nm | 565 | 340-420 nm | 370 | 358 | 24967 |  |  |  |  |  |  |  |  |  |
| C=CCOC(=O)c1ccc(-c2nn(-c3ccc(C(=O)O)cc3)c3ccccc23)cc1 [4e, 4-[3-(4-allyloxycarbonylphenyl)-1H-indazol-1-yl]-benzoic acid] |  | 360-480 nm | 398 | 310-360 nm | 337 | 335 | 34134 | 25.2 - 26.3 Å | photophysically and photochemically stable | 403 | about 60 nm | 0.591 | 1.055±0.117 | 99.73 | 342 | 29926 |
| NC(=O)c1ccc(-c2nn(-c3ccc(C(=O)O)cc3)c3ccc([N+](=O)[O-])cc23)cc1 [4l, 4-[3-(4-carbamoyl-phenyl)-5-nitro-1H-indazol-1-yl]-benzoic Acid] |  | 450-620 nm | 527 | 310-360 nm | 331 | 326 | 17252 |  |  |  |  |  |  |  |  |  |
| O=C(O)c1ccc(-n2nc(-c3ccccc3)c3ccccc32)cc1 [4a] |  | 360-450 nm | 396 | 300-340 nm | 328 | 328 | 22569 |  |  |  |  |  |  |  |  |  |
| O=C(O)c1ccc(-c2nn(-c3ccc(C(=O)O)cc3)c3ccc([N+](=O)[O-])cc23)cc1 [4k, 4-[3-(4-carboxy-phenyl)-5-nitro-1H-indazol-1-yl]-benzoic Acid] |  | 450-620 nm | 524 | 320-360 nm | 331 | 328 | 22622 |  |  |  |  |  |  |  |  |  |
